Source: patent US20250257060A1, “OXADIAZOLE COMPOUND, PHARMACEUTICAL COMPOSITION COMPRISING SAME, AND USE THEREOF” (SUZHOU GENHOUSE BIO CO., LTD., priority 2022, published 2025)
pIC50: −log10 of the molar value. Read-outs that look alike come from different tables or passages of the source.

How the values were obtained:
HDAC6 = HDAC6 (Homo sapiens (Human), UniProt Q9UBN7); test: HDAC6 enzymatic activity assay; assay type: biochemical
Description: The inhibitory activity of the compounds of the present application against HDAC6 was evaluated by an enzymatic activity assay. HDAC6 (Abcam), test compounds, and a 20 µM substrate solution (Ac-GAK(Ac)-AMC) were each added to a 384-well plate, and the plate was incubated at 37° C. for 30 min. […] and […] were added, and the plate was incubated at room temperature for 15 min. […] IC50 was obtained by fitting using GraphPadPrism 7.0 software.

[1] = Pharmacokinetic test in mice (IV and PO); assay type: in vivo, BALB/c mice; details: for MRT inf: read-out: MRT(0-∞)
Description: In this example, the pharmacokinetic behavior of the compounds after intravenous injection (IV) and intragastric (PO) administration in BALB/c mice was tested.
On the day of administration, mice were weighed for actual body weight and the administration volume was calculated. Each compound was tested in two groups with 3 mice in each group, one group administered by single intravenous injection and the other group of mice by single intragastric administration. Whole blood samples were collected via the orbit at prescribed time points (0.25 h, 0.5 h, 1 h, 2 h, 4 h, 8 h, and 24 h after administration). After blood sample collection, the samples were immediately transferred to labeled commercial sample tubes containing K2-EDTA (0.85-1.15 mg), followed by centrifugation (3200×g, 4° C., 10 min) and plasma collection. The plasma was transferred to a pre-cooled centrifuge tube, frozen in dry ice, and stored in an ultra-low temperature freezer at −60° C. or lower until the LC-MS/MS analysis.
Plasma concentrations were determined by a LC-MS/MS method. Plasma drug concentration data for compounds 1 and 2 were processed in a non-compartmental model using WinNonlin Version 6.3 (Pharsight, Mountain View, CA) pharmacokinetic software. The relevant pharmacokinetic parameters were calculated by a linear logarithmic trapezoid method.

[2] = Brain-to-blood drug concentration ratio of mice; assay type: in vivo; details: mouse, 5 mg/kg PO, 2 h; for Kp at 2 h: brain/plasma
Description: On the day of administration, mice were weighed for actual body weight and the administration volume was calculated. In each group of 9 mice, the compound was administered by single intravenous (IV) injection or intragastric (PO) administration. Whole blood samples were collected via the orbit at prescribed time points. After blood sample collection, the samples were immediately transferred to labeled commercial sample tubes containing K2-EDTA (0.85-1.15 mg), followed by centrifugation (3200×g, 4° C., 10 min) and plasma collection. The plasma was transferred to a pre-cooled centrifuge tube, frozen in dry ice, and stored in an ultra-low temperature freezer at −60° C. or lower until the LC-MS/MS analysis. 20 μL of a plasma sample or brain tissue homogenate was taken and 80 μL of an internal standard solution (50 ng/mL solution of propafenone in acetonitrile) was added. The plate was sealed with a film sealer at 165° C., shaken on a micro oscillator (maximum vibration speed) for 10 min, and centrifuged at 4000 rpm for 20 min using a low-speed benchtop centrifuge, 10 μL of supernatant was transferred and 90 μL of acetonitrile was added. The mixture was vortexed and mixed well, and then the plate was sealed with the film sealer at 165° C. After the mixture was vortexed and mixed well, 1 μL of supernatant was taken for LC-MS/MS analysis. Plasma drug concentration data for the compounds were processed in a non-compartmental model using WinNonlin Version 6.3 (Pharsight, Mountain View, CA) pharmacokinetic software. The relevant pharmacokinetic parameters were calculated by a linear logarithmic trapezoid method.
Data processing: brain-to-blood drug concentration ratio of mice at the same time point=drug concentration in brain tissue/drug concentration in plasma

[3] = BALB/c, mouse, plasma, mice, IV 1 mg/kg
[4] = BALB/c, mouse, plasma, mice, PO 5 mg/kg
[5] = brain, read-out: Brain drug concentration
[6] = plasma, read-out: Blood drug concentration

HDAC6, sequence (Q9UBN7 whole entry): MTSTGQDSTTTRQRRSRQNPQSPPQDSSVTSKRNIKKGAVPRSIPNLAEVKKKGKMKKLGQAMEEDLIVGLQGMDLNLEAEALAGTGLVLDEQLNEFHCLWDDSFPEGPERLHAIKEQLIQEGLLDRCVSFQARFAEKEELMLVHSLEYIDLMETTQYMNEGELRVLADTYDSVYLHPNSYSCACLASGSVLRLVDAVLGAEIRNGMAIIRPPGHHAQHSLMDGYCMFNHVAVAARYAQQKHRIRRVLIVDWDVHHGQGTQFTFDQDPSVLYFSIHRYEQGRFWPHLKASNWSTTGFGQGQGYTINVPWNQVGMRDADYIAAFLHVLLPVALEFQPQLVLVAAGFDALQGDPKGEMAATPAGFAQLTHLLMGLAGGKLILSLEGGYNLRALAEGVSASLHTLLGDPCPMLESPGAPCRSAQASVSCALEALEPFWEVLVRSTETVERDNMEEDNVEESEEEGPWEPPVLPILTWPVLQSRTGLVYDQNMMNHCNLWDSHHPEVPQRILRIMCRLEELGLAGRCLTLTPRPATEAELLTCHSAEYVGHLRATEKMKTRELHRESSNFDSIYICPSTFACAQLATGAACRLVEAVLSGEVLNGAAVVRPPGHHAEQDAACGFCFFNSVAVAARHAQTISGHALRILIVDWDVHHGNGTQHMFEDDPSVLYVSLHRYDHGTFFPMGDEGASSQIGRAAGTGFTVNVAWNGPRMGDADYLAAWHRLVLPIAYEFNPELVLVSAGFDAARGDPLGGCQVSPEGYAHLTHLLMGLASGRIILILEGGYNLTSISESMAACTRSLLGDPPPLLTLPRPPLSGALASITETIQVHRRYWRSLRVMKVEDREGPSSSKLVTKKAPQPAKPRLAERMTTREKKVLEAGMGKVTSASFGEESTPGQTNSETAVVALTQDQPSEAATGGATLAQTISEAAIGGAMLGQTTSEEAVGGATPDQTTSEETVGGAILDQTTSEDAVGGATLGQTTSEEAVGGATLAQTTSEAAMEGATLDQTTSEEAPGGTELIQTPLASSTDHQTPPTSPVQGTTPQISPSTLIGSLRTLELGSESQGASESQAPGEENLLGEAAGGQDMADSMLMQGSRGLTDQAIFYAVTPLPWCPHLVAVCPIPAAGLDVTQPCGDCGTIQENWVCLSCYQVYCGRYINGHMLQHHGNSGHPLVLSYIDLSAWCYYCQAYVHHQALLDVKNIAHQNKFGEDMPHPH

pIC50 (HDAC6) | SMILES | other results
6.87 | CN(C)C(=O)N[C@@H]1CCCC[C@H]1N1Cc2ccc(-c3nnc(C(F)F)o3)cc2S1(=O)=O [Compound 93] | Cmax ([1]; BALB/c, mouse, plasma, po, 5 mg/kg, read-out: C0/Cmax): 3410 nM; AUC(0-inf) [1, 3]: 1.08 µM·h; AUC(0-t) [1, 3]: 1.07 µM·h; Cmax ([1]; BALB/c, mouse, plasma, mice, IV 1 mg/kg (C0)): 2110 nM; MRT inf [1, 3]: 36 min; Vd ([1]; BALB/c, mouse, plasma, mice, IV 1 mg/kg, read-out: Vz): 1.9 L/kg; AUC(0-inf) [1, 4]: 4.57 µM·h; AUC(0-t) [1, 4]: 4.56 µM·h; Tmax [1, 4]: 30 min; MRT inf [1, 4]: 72 min; CLz ([1]; mice, IV 1 mg/kg): 33.3 mL/min/kg; t½z ([1]; mice, IV 1 mg/kg): 42 min; F ([1]; mice, PO 5 mg/kg): 84.4%; t½z ([1]; mice, PO 5 mg/kg): 42 min; concentration at 2 h [2, 5]: 27 ng/mL; Kp at 2 h [2]: 0.11; concentration at 2 h [2, 6]: 252 ng/mL
6.71 | CS(=O)(=O)N[C@@H]1CCCC[C@H]1N1Cc2ccc(-c3nnc(C(F)F)o3)cc2S1(=O)=O [Compound 24] | 
6.69 | CNC(=O)N[C@@H]1CCCC[C@H]1N1Cc2ccc(-c3nnc(C(F)F)o3)cc2S1(=O)=O [Compound 94] | 
6.78 | COC(=O)N[C@@H]1CCCC[C@H]1N1Cc2ccc(-c3nnc(C(F)F)o3)cc2S1(=O)=O [Compound 92] | 
6.65 | CC(C)(C)OC(=O)N[C@@H]1CCCC[C@H]1N1Cc2ccc(-c3nnc(C(F)F)o3)cc2S1(=O)=O [Compound 20] | 
6.85 | O=C(N[C@@H]1CCCC[C@H]1N1Cc2ccc(-c3nnc(C(F)F)o3)cc2S1(=O)=O)N1CCCC1 [Compound 112] | 
6.81 | O=S(=O)(N[C@@H]1CCCC[C@H]1N1Cc2ccc(-c3nnc(C(F)F)o3)cc2S1(=O)=O)C1CC1 [Compound 4] | concentration at 2 h [2, 5]: 190 ng/mL; Kp at 2 h [2]: 0.08; concentration at 2 h [2, 6]: 2260 ng/mL

More lines, now with the values behind:

SMILES | pIC50 (HDAC6) | other results
O=S1(=O)c2cc(-c3nnc(C(F)F)o3)ccc2CN1[C@@H](c1ccc(F)cn1)[C@H](O)c1ccc(F)cn1 (single isomer, unassigned) [Compound 88j-A] | 6.88 | 
O=S1(=O)c2cc(-c3nnc(C(F)F)o3)ccc2CN1[C@@H](c1cnccn1)[C@H](O)c1cnccn1 (single isomer, unassigned) [Compound 99j-A-A] | 6.69 | 
Cn1cc([C@@H](O)[C@H](c2cnn(C)c2)N2Cc3ccc(-c4nnc(C(F)F)o4)cc3S2(=O)=O)cn1 (single isomer, unassigned) [Compound 95j-A] | 6.64 | 
O=S1(=O)c2cc(-c3nnc(C(F)F)o3)ccc2CN1[C@H](c1ncccn1)[C@@H](O)c1ncccn1 [Compound 103j-B] | 6.97 | 
O=S1(=O)c2cc(-c3nnc(C(F)F)o3)ccc2CN1[C@@H](c1ccccn1)[C@H](O)c1ccc(F)cn1 (single isomer, unassigned) [Compound 84j-A-A] | 6.68 | 
Cn1cc([C@@H](O)[C@H](c2cnn(C)c2)N2Cc3ccc(-c4nnc(C(F)F)o4)cc3S2(=O)=O)cn1 (single isomer, unassigned) [Compound 95j-B-A] | 7.18 | 
Cn1cc([C@H]([C@@H](O)c2ccccc2)N2Cc3ccc(-c4nnc(C(F)F)o4)cc3S2(=O)=O)cn1 (single isomer, unassigned) [Compound 79i-B] | 7.12 | 
O=S1(=O)c2cc(-c3nnc(C(F)F)o3)ccc2CN1[C@@H]1CCCC[C@H]1NS(=O)(=O)C(F)(F)F [Compound 116] | 6.76 | 
O=C(N[C@@H]1CCCC[C@H]1N1Cc2c(F)cc(-c3nnc(C(F)F)o3)cc2S1(=O)=O)C(F)F [Compound 40] | 6.60 | 
O=C(N[C@@H]1CCCC[C@H]1N1Cc2ccc(-c3nnc(C(F)F)o3)cc2S1(=O)=O)C(F)(F)C(F)(F)F [Compound 3] | 7.34 | 
Cn1cc([C@@H](O)[C@H](c2cnn(C)c2)N2Cc3ccc(-c4nnc(C(F)F)o4)cc3S2(=O)=O)cn1 (single isomer, unassigned) [Compound 95j-B] | 7.52 | 
O=S1(=O)c2cc(-c3nnc(C(F)F)o3)ccc2CN1Cc1cccc(Cl)c1 [Compound 60] | 6.31 | 
O=S1(=O)c2cc(-c3nnc(C(F)F)o3)ccc2CN1[C@@H](c1cnccn1)[C@H](O)c1cnccn1 (single isomer, unassigned) [Compound 99j-A] | 6.83 | 
O=S1(=O)c2cc(-c3nnc(C(F)F)o3)ccc2CN1[C@@H]1COCC[C@H]1O [Compound 49] | 6.09 | 
Cn1cc([C@@H](O)[C@H](c2cnn(C)c2)N2Cc3ccc(-c4nnc(C(F)F)o4)cc3S2(=O)=O)cn1 (single isomer, unassigned) [Compound 95j-B-B] | 6.74 | 
O=C(N[C@@H]1CCCC[C@H]1N1C(=O)c2ccc(-c3nnc(C(F)F)o3)cc2S1(=O)=O)C(F)F [Compound 6] | 6.40 | 
O=S1(=O)c2cc(-c3nnc(C(F)F)o3)ccc2CN1[C@@H](c1cnccn1)[C@H](O)c1cnccn1 (single isomer, unassigned) [Compound 99j-A-B] | 7.13 | 
